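Growth conditions: 96-well plates. Treatment: test compound, 48 hours, 5 concentrations. Analysis: linear interpolation between bracketing concentrations; unreached endpoints set to highest concentration. Abbreviation: GI50, concentration required for 50% inhibition of growth. TGI marks complete inhibition of growth.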
Assays:
Experiment in all cases: DTP human tumour cell line panel, 48 h
HCT-15 colon = tested on: HCT-15 colon
HL-60(TB) leukemia = tested on: HL-60(TB) leukemia
MDA-MB-435 = tested on: MDA-MB-435
RPMI-8226 leukemia = tested on: RPMI-8226 leukemia
SF-268 CNS = tested on: SF-268 CNS
SF-295 CNS = tested on: SF-295 CNS
SK-MEL-2 melanoma = tested on: SK-MEL-2 melanoma
SR leukemia = tested on: SR leukemia
U251 CNS = tested on: U251 CNS
OVCAR-4 ovarian = tested on: OVCAR-4 ovarian

| Structure (SMILES) | TGI (HCT-15 colon) [µM] | TGI (HL-60(TB) leukemia) [µM] | TGI (MDA-MB-435) [µM] | TGI (RPMI-8226 leukemia) [µM] | TGI (SF-268 CNS) [µM] | TGI (SF-295 CNS) [µM] | TGI (SK-MEL-2 melanoma) [µM] | TGI (SR leukemia) [µM] | TGI (U251 CNS) [µM] | GI50 (HCT-15 colon) [µM] | GI50 (HL-60(TB) leukemia) [µM] | GI50 (MDA-MB-435) [µM] | GI50 (OVCAR-4 ovarian) [µM] | TGI (OVCAR-4 ovarian) [µM] | GI50 (RPMI-8226 leukemia) [µM] | GI50 (SF-268 CNS) [µM] | GI50 (SF-295 CNS) [µM] | GI50 (SK-MEL-2 melanoma) [µM] | GI50 (SR leukemia) [µM] | GI50 (U251 CNS) [µM] |
| --- | --- | --- | --- | --- | --- | --- | --- | --- | --- | --- | --- | --- | --- | --- | --- | --- | --- | --- | --- | --- |
| O=C(O)CCNCC(=O)O | > 100 | > 100 | > 100 | > 100 | > 100 | > 100 | > 100 | > 100 | > 100 | – | – | – | – | – | – | – | – | – | – | – |
| CCc1ccc(Oc2c(-c3ccc(OCc4ccc(Cl)cc4)cc3O)n[nH]c2C(F)(F)F)cc1 | 3.21 | 4.86 | 3.49 | 5.25 | 3.39 | 4.74 | 3.74 | 6.92 | 3.22 | 1.6 | 2.41 | 1.8 | 1.62 | 3.31 | 2.33 | 1.74 | 2.04 | 1.75 | 2.78 | 1.79 |
| O=C1Nc2c(ccc(Cl)c2Cl)/C1=C/c1cc(Br)c(O)c(Br)c1 | 35.3 | > 23.8 | 5.82 | 67.7 | > 100 | 19.8 | 20.9 | > 39.3 | 43.1 | 4.65 | 3.01 | 2.02 | 5.69 | > 100 | 2.61 | 14.6 | 2.71 | 5.15 | 2.77 | 6.42 |
| COC(COC(N)=O)C1=C(N2CC2)C(=O)C(C)=C(N2CC2)C1=O (stereo unspecified) | 0.762 | 2.72 | 1.42 | 3.16 | 0.624 | 0.413 | 0.492 | 2.19 | 0.698 | – | – | – | – | 0.413 | – | – | – | – | – | – |
| Cc1ccc(C)c(N2C(=O)C(=O)C(c3nc4ccccc4s3)/C(=N/N)C2=O)c1 (stereo unspecified) | > 100 | > 100 | – | > 100 | > 100 | > 33.5 | > 100 | > 100 | > 100 | – | – | – | – | > 100 | – | – | – | – | – | – |
| O=C1NC(=C(Cl)Cl)/C(=N/S(=O)(=O)N2CCCCC2)N1 | 3.91 | 4.52 | 4.21 | 4.23 | 6.53 | 17.3 | 7.72 | 3.89 | 3.12 | 1.82 | 1.86 | 1.98 | 1.8 | 3.47 | 0.553 | 2.43 | 5.14 | 2.92 | 1.5 | 1.71 |
| COc1ccc2c(c1)C(=O)c1c-2n(CCCN(C)C)c(=O)c2ccccc12 | 3.95 | 2.64 | 3.27 | 0.532 | 2.84 | 1.21 | 7.18 | 11.3 | 3.68 | 0.25 | 0.321 | 0.557 | 0.808 | 6.87 | 0.165 | 0.258 | 0.223 | 1.86 | – | 0.197 |
| O=C(O)c1cc(-c2ccc3cc4c(cc3c2)OCO4)nc2ccccc12 | > 100 | > 100 | > 100 | > 100 | > 100 | > 100 | > 100 | 88.9 | > 100 | – | – | – | – | > 100 | – | – | – | – | – | – |
| Cc1nn(CNc2ccccc2C(F)(F)F)c(=S)n1/N=C/c1cccc2cccnc12 | > 100 | > 100 | 55 | > 100 | > 100 | > 100 | > 100 | 67.6 | – | 24.3 | 40.6 | 22.7 | 44.3 | > 100 | 28.8 | 32.5 | > 100 | > 100 | 20.2 | – |
| O=C1C=C(Nc2ccc(Cl)cc2Cl)c2ccccc2C1=O | > 100 | 92.5 | – | > 100 | > 100 | > 100 | 60.8 | 74.9 | > 100 | – | – | – | – | > 100 | – | – | – | – | – | – |
| O=C(/C=C\c1ccccc1O)c1ccc(O)cc1O | > 100 | > 100 | – | > 100 | > 100 | > 100 | > 100 | > 100 | > 100 | – | – | – | – | > 100 | – | – | – | – | – | – |
| C=C[C@@H](C)[C@]1(C(=O)OC)CCCC12OCCO2 | > 100 | > 100 | – | > 100 | > 100 | > 100 | > 100 | > 100 | > 100 | – | – | – | – | > 100 | – | – | – | – | – | – |
| O=C(CCC(=O)Nc1ccc(Cl)c(Cl)c1)Cc1nc2ccccc2o1 | > 100 | > 100 | – | > 100 | > 100 | > 100 | > 100 | > 100 | > 100 | – | – | – | – | > 100 | – | – | – | – | – | – |
| OCC1C(OCc2ccccc2)C(OCc2ccccc2)C(OCc2ccccc2)CN1Cc1ccccc1 (stereo unspecified) | > 100 | – | > 100 | – | > 100 | > 100 | – | > 100 | > 100 | – | – | – | – | > 100 | – | – | – | – | – | – |
| Cc1ccc(O)c(NC(=O)c2cccc(Nc3ccnc(C(F)(F)F)c3)c2)c1 | 42.8 | 11.1 | 25.9 | – | 39 | 27.6 | 18.9 | 16.4 | 37.6 | 15.5 | 0.592 | 6.65 | 2.97 | 31.2 | – | 13.3 | 6.73 | 5.28 | 1.02 | 15.6 |
| CC(C)C[C@H](NC(=O)CNC(=O)c1cc(Cl)ccc1Cl)B(O)O | – | 0.212 | – | 0.0162 | 0.22 | 0.1 | 0.0364 | 0.385 | 2.81 | 0.0272 | < 0.0167 | – | 0.061 | 5.45 | < 0.01 | 0.0343 | 0.0252 | < 0.0145 | < 0.0152 | 0.0504 |
| COc1ccc(/C=C\c2cc(OC)c(OC)c(OC)c2)cc1OCC(=O)Nc1nc2ccc(F)cc2s1 | > 100 | – | > 100 | > 100 | > 100 | > 100 | > 100 | > 100 | > 100 | 8.19 | – | 0.335 | 7.3 | > 100 | 6.36 | 7.23 | 4.29 | 8.46 | 2.19 | 4.33 |

— PubChem BioAssay (NCI)
